Experimental data published in PubChem BioAssay AID228 (DTP/NCI, 2004).
Values joined by “and” are separate entries in the source; they are usually repeats but may differ in a detail not shown here. Equal entries are not always repeated. Inconclusive results are not listed. Starred links: 1 amine or outer side, 2 acyl side, 3 side chain; linkers in the order of their positions; H or OH if unused. Positions of bridges follow the written chain, without caps; N, C: chain ends. Non-standard residues stand in square brackets, D forms with d. Residues, ends and D or L forms follow the SMILES beside them. Chains are numbered I, II in the order given. Actinocin(9to1) = Cc1c2oc3c(C)ccc(C(=O)[*:1])c3nc-2c(C(=O)[*:2])c(N)c1=O; aThr = C[C@H](O)[C@H](N)C(=O)O; NMeV = CN[C@H](C(=O)O)C(C)C; Sar = CNCC(=O)O

Tested on: BDF1 mice, Friend leukemia sc, tumor weight T/C
Test: NCI In Vivo Anticancer Drug Screen. Data for tumor model Friend Virus Leukemia (Solid) (subcutaneous) in B6D2F1 (BDF1) mice
Details: endpoint: mean tumor weight, schedule: Q01DX011 (ip), higher = larger tumour
Experimental: The antitumor activity of compounds was measured in mice bearing transplantable tumors. Survival or tumor size were measured and the results are expressed as the measurement made in the treated group (T) divided by the measurement made in the vehicle treated control group (C). The tumor model used in this assay is Friend Virus Leukemia (Solid) (subcutaneous) in B6D2F1 (BDF1) mice

[1] = dose: 37.5 mg/kg/injection, vehicle: carboxymethylcellulose (CMC)
[2] = dose: 150.0 mg/kg/injection, vehicle: carboxymethylcellulose (CMC)
[3] = dose: 1.5 mg/kg/injection, vehicle: carboxymethylcellulose (CMC)
[4] = dose: 25.0 mg/kg/injection, vehicle: carboxymethylcellulose (CMC)
[5] = dose: 50.0 mg/kg/injection, vehicle: carboxymethylcellulose (CMC)
[6] = dose: 100.0 mg/kg/injection, vehicle: carboxymethylcellulose (CMC)
[7] = dose: 0.1 mg/kg/injection, vehicle: carboxymethylcellulose (CMC)
[8] = dose: 250.0 mg/kg/injection, vehicle: saline
[9] = dose: 375.0 mg/kg/injection, vehicle: saline
[10] = dose: 0.25 mg/kg/injection, vehicle: carboxymethylcellulose (CMC)
[11] = dose: 0.5 mg/kg/injection, vehicle: carboxymethylcellulose (CMC)
[12] = dose: 1.0 mg/kg/injection, vehicle: carboxymethylcellulose (CMC)
[13] = dose: 0.75 mg/kg/injection, vehicle: saline
[14] = dose: 1.5 mg/kg/injection, vehicle: saline
[15] = dose: 18.75 mg/kg/injection, vehicle: carboxymethylcellulose (CMC)
[16] = dose: 75.0 mg/kg/injection, vehicle: carboxymethylcellulose (CMC)
[17] = dose: 15.0 mg/kg/injection, vehicle: carboxymethylcellulose (CMC)

## O=C(C[N+]12CN3CN(CN(C3)C1)C2)c1ccc(Cl)cc1
[1]
  T/C: 101 % of control
[2]
  T/C: 117 % of control
dose: 300.0 mg/kg/injection, vehicle: carboxymethylcellulose (CMC)
  T/C: 93 % of control

## S=c1nc[nH]c2c1ncn2C1CCCO1 (stereo unspecified)
dose: 0.75 mg/kg/injection, vehicle: carboxymethylcellulose (CMC)
  T/C: 79 % of control
[3]
  T/C: 65 % of control
dose: 6.0 mg/kg/injection, vehicle: carboxymethylcellulose (CMC)
  T/C: 54 % of control and 35 % of control
dose: 12.0 mg/kg/injection, vehicle: carboxymethylcellulose (CMC)
  T/C: 27 % of control and 45 % of control
[4]
  T/C: 9 % of control and 10 % of control
[5]
  T/C: 2 % of control and 20 % of control
[6]
  T/C: 1 % of control and 3 % of control

## CCCCCCCCCCCC[n+]1c(C)cc(N)c2ccccc21
[7]
  T/C: 182 % of control

## CNC(C)=O
dose: 250.0 mg/kg/injection, vehicle: carboxymethylcellulose (CMC)
  T/C: 104 % of control
dose: 500.0 mg/kg/injection, vehicle: carboxymethylcellulose (CMC)
  T/C: 99 % of control and 107 % of control
dose: 1000.0 mg/kg/injection, vehicle: carboxymethylcellulose (CMC)
  T/C: 75 % of control and 76 % of control

## C[C@]12CC[C@H](OC3OC(CO)C(O)C(O)C3O)C[C@H]1CC[C@@H]1[C@@H]2CC[C@]2(C)[C@@H](C3=CCOC3=O)CC[C@]12O (stereo partly specified)
[7]
  T/C: 69 % of control

## CC1=C2C(=C[C@@](C)(CO)[C@@H]2O)C(=O)[C@](C)(O)C12CC2
dose: 7.5 micrograms/kg/injection, vehicle: carboxymethylcellulose (CMC)
  T/C: 121 % of control
dose: 15.0 micrograms/kg/injection, vehicle: carboxymethylcellulose (CMC)
  T/C: 91 % of control
dose: 30.0 micrograms/kg/injection, vehicle: carboxymethylcellulose (CMC)
  T/C: 69 % of control

## CN(C)N=Nc1n[nH]nc1C(N)=O
[8]
  T/C: 75 % of control
[9]
  T/C: 40 % of control

## CCc1ccccc1N1CCN(C(=O)c2cc(OC)c(OC)c(OC)c2)CC1
[10]
  T/C: 64 % of control
[11]
  T/C: 73 % of control
[12]
  T/C: 64 % of control
dose: 2.0 mg/kg/injection, vehicle: carboxymethylcellulose (CMC)
  T/C: 53 % of control and 35 % of control
dose: 4.0 mg/kg/injection, vehicle: carboxymethylcellulose (CMC)
  T/C: 67 % of control
dose: 8.0 mg/kg/injection, vehicle: carboxymethylcellulose (CMC)
  T/C: 40 % of control
dose: 16.0 mg/kg/injection, vehicle: carboxymethylcellulose (CMC)
  T/C: 42 % of control
dose: 31.0 mg/kg/injection, vehicle: other
  T/C: 11 % of control

## O=CN(O)CC(=O)O
dose: 125.0 mg/kg/injection, vehicle: saline
  T/C: 154 % of control
[8]
  T/C: 196 % of control
[9]
  T/C: 193 % of control

## Cc1c2oc3c(C)ccc(C(=O)N[C@@H]4C(=O)N[C@H](C(C)C)C(=O)N5CCC[C@H]5C(=O)N(C)CC(=O)N(C)[C@@H](C(C)C)C(=O)O[C@H]4C)c3nc-2c(C(=O)N[C@@H]2C(=O)N[C@H](C(C)C)C(=O)N3CCC[C@H]3C(=O)N(C)CC(=O)N(C)[C@@H](C(C)C)C(=O)O[C@H]2C)c(N)c1=O (I: [aThr][dV]P[Sar][NMeV] / II: [aThr][dV]P[Sar][NMeV]; ester I:1-I:C, II:1-II:C; linker I:N-II:N via Actinocin(9to1))
dose: 0.03 mg/kg/injection, vehicle: carboxymethylcellulose (CMC)
  T/C: 86 % of control
dose: 0.05 mg/kg/injection, vehicle: carboxymethylcellulose (CMC)
  T/C: 38 % of control and 49 % of control
dose: 0.08 mg/kg/injection, vehicle: carboxymethylcellulose (CMC)
  T/C: 29 % of control
dose: 6.0 micrograms/kg/injection, vehicle: carboxymethylcellulose (CMC)
  T/C: 102 % of control
dose: 13.0 micrograms/kg/injection, vehicle: carboxymethylcellulose (CMC)
  T/C: 93 % of control
dose: 20.0 micrograms/kg/injection, vehicle: carboxymethylcellulose (CMC)
  T/C: 55 % of control
dose: 33.0 micrograms/kg/injection, vehicle: carboxymethylcellulose (CMC)
  T/C: 105 % of control

## NC(Cc1c[nH]c2ccc(N(CCCl)CCCl)cc12)C(=O)O (stereo unspecified)
[13]
  T/C: 37 % of control
[12]
  T/C: 120 % of control
[14]
  T/C: 47 % of control
dose: 2.5 micrograms/kg/injection, vehicle: carboxymethylcellulose (CMC)
  T/C: 71 % of control
dose: 5.0 micrograms/kg/injection, vehicle: carboxymethylcellulose (CMC)
  T/C: 61 % of control
dose: 11.0 micrograms/kg/injection, vehicle: carboxymethylcellulose (CMC)
  T/C: 86 % of control
dose: 22.0 micrograms/kg/injection, vehicle: carboxymethylcellulose (CMC)
  T/C: 90 % of control
dose: 45.0 micrograms/kg/injection, vehicle: carboxymethylcellulose (CMC)
  T/C: 52 % of control
dose: 90.0 micrograms/kg/injection, vehicle: carboxymethylcellulose (CMC)
  T/C: 34 % of control
dose: 180.0 micrograms/kg/injection, vehicle: carboxymethylcellulose (CMC)
  T/C: 40 % of control
dose: 370.0 micrograms/kg/injection, vehicle: carboxymethylcellulose (CMC)
  T/C: 39 % of control

## CCCSc1ncnc2nc[nH]c12
[15]
  T/C: 64 % of control
[1]
  T/C: 64 % of control
[16]
  T/C: 45 % of control
[2]
  T/C: 8 % of control

## O=NN1CCN(N=O)CC1
dose: 8.3 mg/kg/injection, vehicle: carboxymethylcellulose (CMC)
  T/C: 94 % of control
dose: 16.7 mg/kg/injection, vehicle: carboxymethylcellulose (CMC)
  T/C: 120 % of control
dose: 23.5 mg/kg/injection, vehicle: carboxymethylcellulose (CMC)
  T/C: 95 % of control
dose: 26.0 mg/kg/injection, vehicle: carboxymethylcellulose (CMC)
  T/C: 85 % of control

## CN(Cc1cnc2nc(N)nc(N)c2n1)c1ccc(C(=O)N[C@@H](CCC(=O)O)C(=O)O)cc1
dose: 0.37 mg/kg/injection, vehicle: saline
  T/C: 68 % of control
[11]
  T/C: 44 % of control
[13]
  T/C: 91 % of control
dose: 0.8 mg/kg/injection, vehicle: carboxymethylcellulose (CMC)
  T/C: 71 % of control and 88 % of control
dose: 1.4 mg/kg/injection, vehicle: carboxymethylcellulose (CMC)
  T/C: 36 % of control
[3]
  T/C: 16 % of control
[14]
  T/C: 49 % of control

## CS(=O)(=O)OCCCOS(C)(=O)=O
[17]
  T/C: 100 % of control
dose: 30.0 mg/kg/injection, vehicle: carboxymethylcellulose (CMC)
  T/C: 98 % of control
dose: 60.0 mg/kg/injection, vehicle: carboxymethylcellulose (CMC)
  T/C: 31 % of control and 46 % of control
dose: 120.0 mg/kg/injection, vehicle: carboxymethylcellulose (CMC)
  T/C: 22 % of control

## OCC1OC(n2cnc3c(=S)nc[nH]c32)C(O)C1O (stereo unspecified)
[7]
  T/C: 82 % of control and 92 % of control
[10]
  T/C: 45 % of control
dose: 10.0 mg/kg/injection, vehicle: carboxymethylcellulose (CMC)
  T/C: 54 % of control
[17]
  T/C: 1 % of control and 8 % of control
[4]
  T/C: 17 % of control
[5]
  T/C: 13 % of control
dose: 62.0 mg/kg/injection, vehicle: carboxymethylcellulose (CMC)
  T/C: 2 % of control
[6]
  T/C: 8 % of control
dose: 125.0 mg/kg/injection, vehicle: carboxymethylcellulose (CMC)
  T/C: 1 % of control

## CCCCn1cnc2c(SC)nc(N)nc21
[15]
  T/C: 120 % of control
[1]
  T/C: 98 % of control
[16]
  T/C: 83 % of control
[2]
  T/C: 63 % of control
